Test results taken from publication PMC5601486, “Identification of 4-phenylquinolin-2(1H)-one as a specific allosteric inhibitor of Akt” (Scientific Reports, 2017).

How the values were obtained:
PI3K = test system: T1, PI3K; experiment: ADP-Glo kinase assay; type: biochemical; settings: 50 µM
T1 construct: purchased SignalChem P27-10H-05

FoxO1 phosphorylation = experiment: Western blot of Akt downstream signaling; type: cell-based, Mouse; settings: Neuro 2A cells, dose-dependent
Procedure: (§1) Neuro 2A cells were seeded in 12-well plates in DMEM containing 5% FBS for 24 hr.
(§2) After overnight serum starvation (in 0% FBS DMEM), cells were incubated for 30 min at 37 °C with G7 or LY294002 or Torin 1 (Sigma Aldrich) at various concentrations, or DMSO control. IGF-1 was added to each well at a final concentration of 100 ng/mL. After 30-min incubation cells were washed with cold PBS and lysed with 50 µL lysis buffer containing 1% Triton X-100 and protease/phosphatase inhibitors (Cell Signaling Technology) or RIPA buffer (Santa Cruz Biotech). Samples were electrophoresed in 4–12% Bis-Tris gels (Life Technologies) at 150 V using MOPS SDS running buffer. Proteins were transferred electrophoretically to a PVDF or nitrocellulose membrane. For detection of cleaved […]
(§3) caspase 3 a Trans-Blot Turbo Transfer System (Bio-Rad, 25 V for 25 min) with PVDF membrane were used. […]
(§4) anti- GAPDH (14C10) antibody (#2118) (all antibodies were from Cell Signaling Technology unless indicated, 1:1000 dilution was used) at 4°C overnight, washed three times with TBS-T, then incubated with peroxidase-conjugated secondary antibody (Sigma-Aldrich) for 1 hr at room temperature. […] Band intensity was quantitated using Kodak 1D imaging analysis software. […]

GSK-3β phosphorylation = experiment: Western blot of Akt downstream signaling; type: cell-based, Mouse; settings: Neuro 2A cells, dose-dependent
Procedure: as §1, §2, §3, §4

Akt-PIP3 association = test system: T2, Akt-PIP3 association; experiment: PIP3-Akt pull-down assay; type: binding; settings: inactive Akt, PIP3 beads
T2 construct: purchased Millipore 14-279
Procedure: according to the method reported previously6. Briefly, the lipids dissolved in methanol/chloroform were mixed at desired proportions and dried with a N2 steam.
The lipid mixture was redissolved in 2 mL cyclohexane containing 75 μM BHT (2,6-di-tert-butyl-p-cresol) and lyophilized under vacuum. Unilamellar vesicles were obtained by reconstituting the dried sample with 1 mL of PBS (pH 7.4) containing 50 μM DTPA (diethylenetriamine pentaacetic acid) followed by extrusion with 0.1 μm polycarbonate membrane (Corning, Inc.). For in vitro phosphorylation of Akt, 1 μL […]
mixture was resolved on SDS gel followed by western blot analysis.
The assay was performed using a protocol published previously7.
(50 ng) in PBS containing 400 ng/mL BSA was incubated with inhibitor G7 or a PI analog (EMD Millipore, #124005) for 2 hr at 4 °C. 25 µL PIP3 beads (Echelon, #P-B345a) was added to the sample and incubated overnight at 4 °C. The beads were washed with washing buffer containing 10 mM HEPES (pH 7.5), 0.25% NP-40 and 150 mM NaCl. Akt was eluted with 2x LDS and measured by immunoblotting.
Chemical cross-linking and mass spectrometry

ERK5 = experiment: KINOMEscan; settings: 50000 nM
Procedure: KINOMEscan™ selectivity screen
(§5) Briefly, Kinase-tagged T7 phage strains were grown in parallel in an E. coli host derived from the BL21 strain. E. coli were grown to log-phase and infected with T7 phage from a frozen stock and incubated with shaking at 32°C until lysis (90-150 minutes). The kinases were produced in HEK-293 cells and subsequently tagged with DNA for qPCR detection. Streptavidin-coated magnetic beads were treated with biotinylated small molecule ligands to generate affinity resins for kinase
(§6) inhibitor or DMSO control was performed in polypropylene 384-well plates for 1 hr at room temperature. After wash with PBS buffer containing 0.05% Tween 20, the beads were incubated in elution buffer (PBS containing 0.05 % Tween 20 and 0.5 μM non-biotinylated affinity ligand) for 30 minutes at room temperature. The kinase concentration in the eluates was measured by qPCR.

MKK7 = experiment: KINOMEscan; settings: 50000 nM
Procedure: KINOMEscan™ selectivity screen
(§7) The assay was perfor med at DiscoveRx Corporation according the methods published previously5. Briefly, Kinase-tagged T7 phage strains were grown in parallel in an E. coli host derived from the BL21 strain. E. coli were grown to log-phase and infected with T7 phage from a frozen stock and incubated with shaking at 32°C until lysis (90-150 minutes). The kinases were produced in HEK-293 cells and subsequently tagged with DNA for qPCR detection. Streptavidin-coated magnetic beads were treated with biotinylated small molecule ligands to generate affinity resins for kinase
as §6

MYLK2 = experiment: KINOMEscan; settings: 50000 nM
Procedure: KINOMEscan™ selectivity screen
as §7, §6

p38-gamma = experiment: KINOMEscan; settings: 50000 nM
Procedure: KINOMEscan™ selectivity screen
as §5, §6

PIK3CA(H1047Y) = experiment: KINOMEscan; settings: 50000 nM
Procedure: KINOMEscan™ selectivity screen
as §7, §6

SRPK3 = experiment: KINOMEscan; settings: 50000 nM
Procedure: KINOMEscan™ selectivity screen
as §7, §6

YANK1 = experiment: KINOMEscan; settings: 50000 nM
Procedure: KINOMEscan™ selectivity screen
as §5, §6

PIK3C2G = experiment: KINOMEscan; settings: 50000 nM
Procedure: KINOMEscan™ selectivity screen
as §7, §6

EPHA8 = experiment: KINOMEscan; settings: 50000 nM
Procedure: KINOMEscan™ selectivity screen
as §7, §6

MYLK = experiment: KINOMEscan; settings: 50000 nM
Procedure: KINOMEscan™ selectivity screen
as §7, §6

FYN = experiment: KINOMEscan; settings: 50000 nM
Procedure: KINOMEscan™ selectivity screen
as §7, §6

EPHA6 = experiment: KINOMEscan; settings: 50000 nM
Procedure: KINOMEscan™ selectivity screen
as §5, §6

NEK1 = experiment: KINOMEscan; settings: 50000 nM
Procedure: as §5, §6

ERK4 = experiment: KINOMEscan; settings: 50000 nM
Procedure: KINOMEscan™ selectivity screen
as §7, §6

RIOK2 = experiment: KINOMEscan; settings: 50000 nM
Procedure: KINOMEscan™ selectivity screen
as §7, §6

LOK = experiment: KINOMEscan; settings: 50000 nM
Procedure: KINOMEscan™ selectivity screen
as §7, §6

TRPM6 = experiment: KINOMEscan; settings: 50000 nM
Procedure: KINOMEscan™ selectivity screen
as §5, §6

BRSK1 = experiment: KINOMEscan; settings: 50000 nM
Procedure: KINOMEscan™ selectivity screen
as §7, §6

PRKG1 = experiment: KINOMEscan; settings: 50000 nM
Procedure: KINOMEscan™ selectivity screen
as §7, §6

MKNK2 = experiment: KINOMEscan; settings: 50000 nM
Procedure: KINOMEscan™ selectivity screen
as §5, §6

INSRR = experiment: KINOMEscan; settings: 50000 nM
Procedure: KINOMEscan™ selectivity screen
as §7, §6

YSK4 = experiment: KINOMEscan; settings: 50000 nM
Procedure: KINOMEscan™ selectivity screen
as §7, §6

DYRK1A = experiment: KINOMEscan; settings: 50000 nM
Procedure: KINOMEscan™ selectivity screen
as §7, §6

PIM1 = experiment: KINOMEscan; settings: 50000 nM
Procedure: KINOMEscan™ selectivity screen
as §7, §6

ERK8 = experiment: KINOMEscan; settings: 50000 nM
Procedure: KINOMEscan™ selectivity screen
as §7, §6

[1] = test system: RSK4(Kin.Dom.1-N-terminal); experiment: KINOMEscan; settings: 50000 nM
Procedure: KINOMEscan™ selectivity screen
as §7, §6

Oc1cc(-c2ccccc2)c2ccccc2n1 [G7, 4-phenylquinolin-2(1H)-one]
effect on PI3K activity (PI3K): no effects | phosphorylation of FoxO1 (FoxO1 phosphorylation): decreased | phosphorylation of GSK-3β (GSK-3β phosphorylation): decreased | effect on the Akt-PIP3 association (Akt-PIP3 association): insignificant effect | Percent Control (ERK5): 100% | Percent Control (MKK7): 100% | Percent Control (MYLK2): 100% | Percent Control (p38-gamma): 100% | Percent Control (PIK3CA(H1047Y)): 100% | Percent Control (SRPK3): 100% | Percent Control (YANK1): 100% | Percent Control (PIK3C2G): 97% | Percent Control (EPHA8): 93% | Percent Control (MYLK): 90% | Percent Control (FYN): 89% | Percent Control (EPHA6): 88% | Percent Control (NEK1): 88% | Percent Control (ERK4): 86% | Percent Control (RIOK2): 83% | Percent Control (LOK): 82% | Percent Control (TRPM6): 78% | Percent Control (BRSK1): 72% | Percent Control (PRKG1): 70% | Percent Control (MKNK2): 65% | Percent Control (INSRR): 64% | Percent Control (YSK4): 55% | Percent Control (DYRK1A): 54% | Percent Control (PIM1): 49% | Percent Control (ERK8): 46% | Percent Control [1]: 34%
